Experimental findings from ChEMBL document CHEMBL3865833, “Functional induction of P-glycoprotein efflux pump by phenyl benzenesulfonamides: Synthesis and biological evaluation of T0901317 analogs” (Eur J Med Chem, 2016) are described below.

Activity calls are given as the source filed them. The calls are words filed in the database; no cut-off is given here.

Series [1] has as its system LS180. In words: Activation of PXR/LXR in human LS180 cells assessed as induction of P-gp measured as intracellular accumulation of Rhodamine-123 at 5 uM preincubated for 48 hrs followed by 40 mins incubation with HANKS buffer and subsequent addition of Rhodamine-123 measured after 90 mins by fluorescence analysis relative to control. It is filed as cell-based.
A short description of series [2]: Cytotoxicity against human LS180 cells assessed as effect on cell viability at 50 uM measured after 24 hrs by MTT assay relative to control. Format: toxicity, cell-based. Conditions: read-out: Activity.
The nature of series [3]: Cytotoxicity against human SH-SY5Y cells assessed as effect on cell viability at 50 uM measured after 24 hrs by MTT assay relative to control. Format: toxicity, cell-based. Conditions: read-out: Activity.
The nature of series [4]: Cytotoxicity against human LS180 cells assessed as effect on cell viability measured after 24 hrs by MTT assay. Format: toxicity, cell-based.
Series [5] in a line: Cytotoxicity against human SH-SY5Y cells assessed as effect on cell viability measured after 24 hrs by MTT assay. It is filed as toxicity, cell-based.
For series [6], the system named is LS180. The experiment in a line: Activation of PXR/LXR in human LS180 cells assessed as induction of P-gp by measuring decrease in intracellular accumulation of Rhodamine-123 at 0.3 uM preincubated for 48 hrs followed by 40 mins incubation with HANKS buffer and subsequent addition of Rhodamine-123 measured after 90 mins by fluorescence assay. Format: cell-based.

The test system of series [7] is LS180. In words: Activation of PXR/LXR in human LS180 cells assessed as induction of P-gp at 5 uM measured after 24 hrs by Western blot analysis. It is filed as cell-based.
Series [8] in a line: Therapeutic index, ratio of effective concentration for cytotoxicity in human LS180 cells to effective concentration for activation of PXR/LXR in human LS180 cells assessed as induction of P-gp. Format: cell-based. Conditions: read-out: TI.
A short description of series [9]: Therapeutic index, ratio of effective concentration for cytotoxicity in human SH-SY5Y cells to effective concentration for activation of PXR/LXR in human LS180 cells assessed as induction of P-gp. The conditions noted are these: read-out: TI. Format: cell-based.
The nature of series [10]: Neuroprotective activity in human SH-SY5Y cells assessed as decrease in amyloid beta-induced cytotoxicity measured as cell viability at 5 uM pretreated for 30 mins prior amyloid beta-challenge measured after 48 hrs by MTT assay (reference value: 68%). It is filed as functional.
Series [11] concerns LS180. In words: Activation of PXR/LXR in human LS180 cells assessed as induction of P-gp by measuring intracellular accumulation of Rhodamine-123 at 10 uM preincubated for 48 hrs followed by 40 mins incubation with HANKS buffer and subsequent addition of Rhodamine-123 measured after 90 mins by fluorescence assay relative to control. It is filed as cell-based.

Take `O=S(=O)(c1ccccc1)N(CC(F)(F)F)c1ccc(C(O)(C(F)(F)F)C(F)(F)F)cc1` [T091317]: in the series on LS180 [1], the Activity was 64.2%. Further, the viability at 24 h, 50 µM in series [2] was 73.3%; in series [3], 94.8%. Besides, the half-inhibitory concentration (IC50) at 24 h in [4] and in series [5] was > 50 µM in each case. Moreover, the result in the series on LS180 [6] and in the series on LS180 [7] was Active. In addition, the selectivity ratio in series [8] and in series [9] was 10 throughout.

As to `O=S(=O)(c1ccccc1)N(Cc1cn(-c2c(F)cccc2F)nn1)c1ccc(C(O)(C(F)(F)F)C(F)(F)F)cc1`, the values for the Activity (in the series on LS180 [1]; in series [10]) were 65.1% and 75%, respectively. Besides, the values for the viability at 24 h, 50 µM in series [2] and in series [3] were 74.5% and 125%, respectively. Also, in the series with LS180 [6], the outcome was Active. Also, the selectivity ratio in series [8] and in series [9] was 10 each time.

For the compound `CO[C@H]1/C=C/O[C@@]2(C)Oc3c(C)c(O)c4c(O)c(c(/C=N/N5CCN(C)CC5)c(O)c4c3C2=O)NC(=O)/C(C)=C\C=C\[C@H](C)[C@H](O)[C@@H](C)[C@@H](O)[C@@H](C)[C@H](OC(C)=O)[C@@H]1C`, in the series with LS180 [11], the Activity stood at 66.9%.

Consider `CC(=O)c1ccc(N(Cc2cn(-c3ccccc3)nn2)S(=O)(=O)c2ccccc2)cc1`, for which the Activity with LS180 [1] stood at 53.4%. Also, the viability at 24 h, 50 µM in series [2] stood at 86.3%; in series [3] it was 114%. Also, the result with LS180 [6] was Active. In addition, the selectivity ratio in [9] stood at 10.

Turning to `CC(=O)c1ccc(N(Cc2cn(-c3ccc(C(F)(F)F)cc3)nn2)S(=O)(=O)c2ccccc2)cc1`, the Activity in the series on LS180 [1] turned out to be 48.4%; in series [10] it was 79%. The viability at 24 h, 50 µM in series [2] stood at 76.7%; in series [3] it was 108%. Further, the IC50 at 24 h in [4] and in [5] was > 50 µM each time. In addition, the outcome in the series on LS180 [6] and in the series on LS180 [7] was Active. Further, the selectivity ratio in [8] and in series [9] was > 166 throughout.

For the compound `O=S(=O)(c1ccccc1)N(Cc1cn(-c2ccccc2F)nn1)c1ccc(C(O)(C(F)(F)F)C(F)(F)F)cc1`, the Activity with LS180 [1] came to 61.8%. The viability at 24 h, 50 µM in [2] came to 65.1%; in [3], 129%. Further, the result with LS180 [6] was Active. The selectivity ratio in [8] and in series [9] was 10 in each case.

`CC(=O)c1ccc(N(Cc2cn(-c3ccccc3C(F)(F)F)nn2)S(=O)(=O)c2ccccc2)cc1`: the Activity in the series on LS180 [1] turned out to be 48.5%. Moreover, the viability at 24 h, 50 µM in series [2] is 112%; in series [3], 83.9%. In addition, the result with LS180 [7] was Active. The selectivity ratio in series [8] and in series [9] was 10 each time.

On to `CC(=O)c1ccc(N(Cc2cn(-c3ccc(C)cc3)nn2)S(=O)(=O)c2ccccc2)cc1`, for which the Activity with LS180 [1] was found to be 58.6%. Also, the viability at 24 h, 50 µM in series [2] came out at 84.1%; in series [3] it was 85.8%. For the same compound, the selectivity ratio in [8] and in [9] was 10 each time.

`COc1ccc(-n2cc(CN(c3ccc(C(C)=O)cc3)S(=O)(=O)c3ccccc3)nn2)cc1`: the Activity in the series on LS180 [1] came out at 86.3%. In addition, the viability at 24 h, 50 µM in series [2] came out at 93.3%; in series [3], 88.5%. Also, the selectivity ratio in [8] and in series [9] was 10 throughout.
